Columns and labels:
Format in all cases: in vivo
barnyardgrass (Ec) [1] = assay: Test Example 1: herbicidal effects by paddy field soil treatment; details: 100 g of the active ingredient per 10 ares, 21st day after the application, index 0-5 of Table 47;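 also: grade of growth control; 5 = at least 90%; 4 = 70 to 90%; 3 = 50 to 70%; 2 = 30 to 50%; 1 = 10 to 30%; 0 = under 10%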
Outline: (§1)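 Herbicidal effect was scored against a graded standard 21 days after treatment. Seeds were sown in puddled, leveled paddy soil flooded to 3 cm depth, and the active ingredient was applied at 100 g per 10 ares before greenhouse culture.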

bulrush (Sc) = assay: as above; details: 100 g of the active ingredient per 10 ares, 21st day after the application, index 0-5 of Table 47;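 also: grade of growth control; 5 = at least 90%; 4 = 70 to 90%; 3 = 50 to 70%; 2 = 30 to 50%; 1 = 10 to 30%; 0 = under 10%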
Outline: as §1

monochoria (Mo) = assay: as above; details: 100 g of the active ingredient per 10 ares, 21st day after the application, index 0-5 of Table 47;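 also: grade of growth control; 5 = at least 90%; 4 = 70 to 90%; 3 = 50 to 70%; 2 = 30 to 50%; 1 = 10 to 30%; 0 = under 10%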
Outline: as §1

Digitaria ciliaris (Di) = assay: Test Example 2: herbicidal effects by upland field soil treatment; details: 100 g of the active ingredient per 10 ares;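 also: grade of growth control; 5 = at least 90%; 4 = 70 to 90%; 3 = 50 to 70%; 2 = 30 to 50%; 1 = 10 to 30%; 0 = under 10%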
Description: (§2) (Test on Herbicidal Effects by Upland Field Soil Treatment)

barnyardgrass (Ec) [2] = assay: as above; details: 100 g of the active ingredient per 10 ares
Description: as §2

[3] = tested on: common lambsquarters (Ch); assay: as above; details: 100 g of the active ingredient per 10 ares
Description: as §2

pale smartweed (Po) [4] = assay: as above; details: 100 g of the active ingredient per 10 ares
Description: as §2

rice flatsedge (Ci) [5] = assay: as above; details: 100 g of the active ingredient per 10 ares
Description: as §2

slender amaranth (Am) [6] = assay: as above; details: 100 g of the active ingredient per 10 ares
Description: as §2

Diaitaria ciliaris (Di) = assay: Test Example 3: herbicidal effects by upland field foliage treatment; set-up: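 grade of growth control; 5 = at least 90%; 4 = 70 to 90%; 3 = 50 to 70%; 2 = 30 to 50%; 1 = 10 to 30%; 0 = under 10%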; details: 100 g of the active ingredient per 10 ares, evaluated on the 14th day after treatment
Outline: (§3)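 Weeds were sown in sand-filled pots (surface area: 120 cm^2), covered with soil and grown in a greenhouse for 2 weeks before foliar treatment. Plants then stayed in the greenhouse, and herbicidal effect was scored against graded standards on the 14th day after treatment.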

barnyardgrass (Ec) [7] = assay: as above; set-up: scale not given here; details: 100 g of the active ingredient per 10 ares, evaluated on the 14th day after treatment
Outline: as §3

[8] = tested on: common lambsquarters (Ch); assay: as above; set-up: scale not given here; details: 100 g of the active ingredient per 10 ares, evaluated on the 14th day after treatment
Outline: as §3

pale smartweed (Po) [9] = assay: as above; set-up: scale not given here; details: 100 g of the active ingredient per 10 ares, evaluated on the 14th day after treatment
Outline: as §3

rice flatsedge (Ci) [10] = assay: as above; set-up: scale not given here; details: 100 g of the active ingredient per 10 ares, evaluated on the 14th day after treatment
Outline: as §3

slender amaranth (Am) [11] = assay: as above; set-up: scale not given here; details: 100 g of the active ingredient per 10 ares, evaluated on the 14th day after treatment
Outline: as §3

cotton (Go) = assay: Test Example 4: crop plant selectivity by upland field soil treatment (cotton), phytotoxicity; set-up: scale not given here; details: dose 6.3 g ai/10 a, evaluated 21st day after application
Description: (§4) (Test on Crop Plant Selectivity by Upland Field Soil Treatment)
(§5) In a plastic pot (surface area: 600 cm^2) filled with sand, cotton (Go), Diaitaria ciliaris (Di), green foxtail (Se), pale smartweed (Po), slender amaranth (Am), common lambsquarters (Ch) and China jute (Ab) were sown and covered with soil. […] The plants were then cultured in a green house, and the evaluation of the herbicidal effects and phytotoxicity was conducted on the 21st day after the application in accordance with the standards as identified in Table 47. Symbol—represents “not tested”.

China jute (Ab) [12] = assay: Test Example 4: crop plant selectivity by upland field soil treatment (cotton), herbicidal effects; set-up: scale not given here; details: dose 6.3 g ai/10 a, evaluated 21st day after application
Description: as §4, §5

[13] = tested on: common lambsquarters (Ch); assay: as above; set-up: scale not given here; details: dose 6.3 g ai/10 a, evaluated 21st day after application
Description: as §4, §5

green foxtail (Se) [14] = assay: as above; set-up: scale not given here; details: dose 6.3 g ai/10 a, evaluated 21st day after application
Description: as §4, §5

pale smartweed (Po) [15] = assay: as above; set-up: scale not given here; details: dose 6.3 g ai/10 a, evaluated 21st day after application
Description: as §4, §5

slender amaranth (Am) [16] = assay: as above; set-up: scale not given here; details: dose 6.3 g ai/10 a, evaluated 21st day after application
Description: as §4, §5

wheat (Tr) = assay: Test Example 5: crop plant selectivity by upland field soil treatment (wheat), phytotoxicity; set-up: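 grade of crop injury; 5 = at least 90%; 4 = 70 to 90%; 3 = 50 to 70%; 2 = 30 to 50%; 1 = 10 to 30%; 0 = under 10%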; details: dose 1.6 g ai/10a, 21st day after application
Description: as §4
(§6) In a plastic pot (surface area: 600 cm^2) filled with sand, wheat (Tr), Diaitaria ciliaris (Di), green foxtail (Se), pale smartweed (Po), slender amaranth (Am), common lambsquarters (Ch) and China jute (Ab) were sown and covered with soil. […] The plants were then cultured in a green house, and the evaluation of the herbicidal effects and phytotoxicity was conducted on the 21st day after the application in accordance with the standards as identified in Table 47. Symbol—represents “not tested”.

[17] = tested on: common lambsquarters (Ch); assay: Test Example 5: crop plant selectivity by upland field soil treatment (wheat), herbicidal effects; set-up: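 grade of growth control; 5 = at least 90%; 4 = 70 to 90%; 3 = 50 to 70%; 2 = 30 to 50%; 1 = 10 to 30%; 0 = under 10%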; details: dose 1.6 g ai/10a, 21st day after application
Description: as §4, §6

green foxtail (Se) [18] = assay: as above; set-up: scale not given here; details: dose 1.6 g ai/10a, 21st day after application
Description: as §4, §6

pale smartweed (Po) [19] = assay: as above; set-up: scale not given here; details: dose 1.6 g ai/10a, 21st day after application
Description: as §4, §6

slender amaranth (Am) [20] = assay: as above; set-up: scale not given here; details: dose 1.6 g ai/10a, 21st day after application
Description: as §4, §6

soybean (Gl) = assay: Test Example 6: crop plant selectivity by upland field soil treatment (soybean), phytotoxicity; set-up: scale not given here; details: dose 6.3 g ai/10a, 21st day after application
Description: as §4
(§7) In a plastic pot (surface area: 600 cm^2) filled with sand, soybean (Gl), Diaitaria ciliaris (Di), green foxtail (Se), Johnsongrass (So), pale smartweed (Po), slender amaranth (Am), common lambsquarters (Ch) and China jute (Ab) were sown and covered with soil. […] The plants were then cultured in a green house, and the evaluation of the herbicidal effects and phytotoxicity was conducted on the 21st day after the application in accordance with the standards as identified in Table 47. Symbol—represents “not tested”.

China jute (Ab) [21] = assay: Test Example 6: crop plant selectivity by upland field soil treatment (soybean), herbicidal effects; set-up: scale not given here; details: dose 6.3 g ai/10a, 21st day after application
Description: as §4, §7

[22] = tested on: common lambsquarters (Ch); assay: as above; set-up: scale not given here; details: dose 6.3 g ai/10a, 21st day after application
Description: as §4, §7

green foxtail (Se) [23] = assay: as above; set-up: scale not given here; details: dose 6.3 g ai/10a, 21st day after application
Description: as §4, §7

pale smartweed (Po) [24] = assay: as above; set-up: scale not given here; details: dose 6.3 g ai/10a, 21st day after application
Description: as §4, §7

slender amaranth (Am) [25] = assay: as above; set-up: scale not given here; details: dose 6.3 g ai/10a, 21st day after application
Description: as §4, §7

corn (Ze) = assay: Test Example 7: crop plant selectivity by upland field soil treatment (corn), phytotoxicity; set-up: scale not given here; details: dose 6.3 g ai/10a, 21st day after application
Description: as §4
(§8) In a plastic pot (surface area: 600 cm^2) filled with sand, corn (Ze), green foxtail (Se), pale smartweed (Po), slender amaranth (Am), common lambsquarters (Ch) and China jute (Ab) were sown and covered with soil. […] The plants were then cultured in a green house, and the evaluation of the herbicidal effects and phytotoxicity was conducted on the 21st day after the application in accordance with the standards as identified in Table 47.

China jute (Ab) [26] = assay: Test Example 7: crop plant selectivity by upland field soil treatment (corn), herbicidal effects; set-up: scale not given here; details: dose 6.3 g ai/10a, 21st day after application
Description: as §4, §8

[27] = tested on: common lambsquarters (Ch); assay: as above; set-up: scale not given here; details: dose 6.3 g ai/10a, 21st day after application
Description: as §4, §8

green foxtail (Se) [28] = assay: as above; set-up: scale not given here; details: dose 6.3 g ai/10a, 21st day after application
Description: as §4, §8

pale smartweed (Po) [29] = assay: as above; set-up: scale not given here; details: dose 6.3 g ai/10a, 21st day after application
Description: as §4, §8

slender amaranth (Am) [30] = assay: as above; set-up: scale not given here; details: dose 6.3 g ai/10a, 21st day after application
Description: as §4, §8

[31] = 21st day after the application, index 0-5 of Table 47
[32] = evaluated on the 21st day after application

| Compound | Herbicidal effects Ec (barnyardgrass (Ec) [1]) | Herbicidal effects Sc (bulrush (Sc)) | Herbicidal effects Mo (monochoria (Mo)) | Herbicidal effects Di (Diaitaria ciliaris (Di)) | Herbicidal effects Ec (barnyardgrass (Ec) [7]) | Herbicidal effects Ch [8] | Herbicidal effects Po (pale smartweed (Po) [9]) | Herbicidal effects Ci (rice flatsedge (Ci) [10]) | Herbicidal effects Am (slender amaranth (Am) [11]) | Phytotoxicity Go (cotton (Go)) | Herbicidal effects Ab (China jute (Ab) [12]) | Herbicidal effects Ch [13] | Herbicidal effects Se (green foxtail (Se) [14]) | Herbicidal effects Po (pale smartweed (Po) [15]) | Herbicidal effects Am (slender amaranth (Am) [16]) | Phytotoxicity Ze (corn (Ze)) | Herbicidal effects Ab (China jute (Ab) [26]) | Herbicidal effects Ch [27] | Herbicidal effects Se (green foxtail (Se) [28]) | Herbicidal effects Po (pale smartweed (Po) [29]) | other results |
| --- | --- | --- | --- | --- | --- | --- | --- | --- | --- | --- | --- | --- | --- | --- | --- | --- | --- | --- | --- | --- | --- |
| CCCOc1cc(-c2ccc(C(F)(F)F)n(C)c2=O)c(F)cc1Cl [1-154] | 5 | 5 | 5 | 5 | 5 | 5 | 5 | 5 | 5 | 0 | 5 | 5 | 5 | 5 | 5 | 1 | 5 | 5 | 5 | 5 | Herbicidal effects Di (Digitaria ciliaris (Di); [31]): 5; Herbicidal effects Ec (barnyardgrass (Ec) [2]; [31]): 5; Herbicidal effects Ch [3, 31]: 5; Herbicidal effects Po (pale smartweed (Po) [4]; [31]): 5; Herbicidal effects Ci (rice flatsedge (Ci) [5]; [31]): 5; Herbicidal effects Am (slender amaranth (Am) [6]; [31]): 5; Phytotoxicity Tr (wheat (Tr)): 1; Herbicidal effects Ch [17]: 5; Herbicidal effects Se (green foxtail (Se) [18]): 5; Herbicidal effects Po (pale smartweed (Po) [19]): 5; Herbicidal effects Am (slender amaranth (Am) [20]): 5; Phytotoxicity Gl (soybean (Gl)): 1; Herbicidal effects Ab (China jute (Ab) [21]): 5; Herbicidal effects Ch [22]: 5; Herbicidal effects Se (green foxtail (Se) [23]): 5; Herbicidal effects Po (pale smartweed (Po) [24]): 5; Herbicidal effects Am (slender amaranth (Am) [25]): 5; Herbicidal effects Am (slender amaranth (Am) [30]): 5 |
| Cn1c(C(F)(F)F)ccc(-c2cc(OCCF)c(Cl)cc2F)c1=O [1-172] | 5 | 5 | 5 | 5 | 5 | 5 | 5 | 5 | 5 | 1 | 5 | 5 | 5 | 5 | 5 | 2 | 5 | 5 | 5 | 5 | Herbicidal effects Di (Digitaria ciliaris (Di); [32]): 5; Herbicidal effects Ec (barnyardgrass (Ec) [2]; [32]): 5; Herbicidal effects Ch [3, 32]: 5; Herbicidal effects Po (pale smartweed (Po) [4]; [32]): 5; Herbicidal effects Ci (rice flatsedge (Ci) [5]; [32]): 5; Herbicidal effects Am (slender amaranth (Am) [6]; [32]): 5; Herbicidal effects Am (slender amaranth (Am) [30]): 5 |

Reference: patent publication US6472348B1, “Pyridone derivatives and herbicides” (Kumiai Chemical Industry Co., Ltd., priority 1996, dated 2002)
